For this data set, the system named is c-myc protein. In words: Efficacy study in Ep-myc mice: c-myc protein in lymph nodes by western blot. The data set is classed as in vivo. The following applies: SC 60 mg/kg over 2 days, euthanized day 3, western blot. How it is done:
FIGS. 8A-D show organ distribution after intravenous and subcutaneous administration of indicated PNAs. (8A) The organ distribution of γPNA-NLS TAMRA after intravenous (IV) and subcutaneous (SC) administration in transgenic mice model of B-cell lymphoma (Ep-myc). γPNA-NLS TAMRA was administered at 5 mg/kg via IV and SC route and organ distribution was determined via IVIS imaging after 24 h. (8B) Confocal microscopy images of different lymph nodes (LNs) after IV and SC injection of γPNA-NLS TAMRA. Blue indicates DAPI and red indicated TAMRA. Scale bar, 30 μm. (8C) C-myc protein levels in brachial lymph nodes of γPNA5-NLS treated mice in comparison to the control (untreated mice). N=4 mice per group. (8D) C-myc protein levels in axillary lymph nodes of γPNA5-NLS treated mice in comparison to the control (untreated mice). N=4 mice per group. […]
Western blot analysis: Total protein was extracted from collected lymphocytes using 1×RIPA buffer (Cell signaling technology, USA) containing protease inhibitor. The concentration of protein was determined using absorbance-based DC protein assay (Bio-Rad, USA). […] The bands were detected using anti-rabbit IgG HRP linked secondary antibody (Cell signaling technology, #7074) (1:2000 dilution, 5% milk in TBST) and HRP substrate (Millipore sigma). The blots were imaged using ChemiDoc imager (Bio-Rad, USA) and band intensities were quantified using imageJ.

Take “X3TCCCTCCCCTCCCTTCTTTTTCCX2 (gamma PNA; NLS peptide; gammaPNA; misc_feature 1 JJJTJJJT-linker- is covalently linked to the backbone, wherein J is pseudoisocytosine and the linker is 11-Amino-3,6,9-Trioxaundecanoic Acid (DCHA), represented as -OOO-; misc_feature 23 -K-linker-SEQ ID NO: 5 is covalently linked to the backbone, wherein the linker is 11-Amino-3,6,9-Trioxaundecanoic Acid (DCHA), represented as -OOO-; modified_base 1..23 OTHER; peptide nuc) [γPNA5-NLS]”: the “c-myc protein levels in brachial and axillary lymph nodes in comparison to untreated group” value was “substantial decrease in c-myc protein levels”.

The record behind these values is patent publication US20260125428A1, “SYNTHETIC TRIPLEX PEPTIDE NUCLEIC ACID-BASED INHIBITORS FOR CANCER THERAPY” (University of Connecticut, priority 2022, published 2026).
